Data published in patent publication US5416118A, “Bicyclic amides as inhibitors of acyl-coenzyme A: cholesterol acyl transferase” (Schering Corporation, priority 1993, dated 1995).

Experiments:
ACAT = ACAT Assay (in vitro); type: biochemical; conditions: dose = 10 μM; rat liver microsomes
Procedure: This assay measures the activity of ACAT by measuring the ACAT-mediated transfer of tritiated oleic acid from acyl-CoA to cholesterol to give labelled cholesterol oleate. Rat liver microsomes are used as the source of ACAT. Assays are performed in round bottom microtiterplates using a total incubation volume of 50 μL. Each incubation well receives 10 μL assay buffer (0.5M KHPO4, 10 μM dithiothreitol, pH 7.4), 7.5 μL of 40 mg/mL BSA (Bovine Serum Albumin) and 12.5 μg of microsomal protein. The test compound (in sufficient amount to bring the final concentration to from 0.1 to 25 μM), reference compound, or vehicle control is added and the final volume brought to 47 μL. The microtiterplate is then floated on the surface of a 37° C. water bath for fifteen minutes. Incubations are started by the addition of 3 μL ^3 H-acyl CoA (1 μCi/well, final concentration of 10 μM acyl CoA). The plate is then returned to the water bath for 15 minutes. The incubations are then terminated by application of 15 μL from each incubation to individual lanes on a thin layer plate (Silica Gel GF 20×20 cm). Standards are applied to several lanes so that the cholesterol ester band can be identified. After drying, the plates are eluted with 90:10:1 petroleum ether:ether:HOAc. The standards are visualized via iodine vapor, and the regions corresponding to cholesterol ester are scraped into 7 mL scintillation vials. 4 mL of scintillant are added to each vial, and the radioactivity quantified. Background count is determined by the boiled controls. Full activity is determined by activity in the presence of vehicle. The percent inhibition is calculated by subtracting the background from both control and test samples, and the test value is calculated as a percentage of the control. For IC50 determinations, the inhibition is plotted against drug doses on a log scale and the concentration at which 50% inhibition is obtained is determined.
(§1) Using the assay methods described above, the compounds of Examples 1-9 were tested for in vitro ACAT inhibitory activity and for the ability to lower the level of cholesteryl esters in vivo.

cholesteryl esters = test: In Vivo Assay of Hypolipidemic Agents Using the Hyperlipidemic Hamster; conditions: Mesocricetus auratus, po, 168 h, oral gavage once daily, 7 days, versus control, read-out: % Reduction in cholesteryl esters; for change in vivo at 50 mg/kg: 50 mpk; for change in vivo at 100 mg/kg: 100 mpk; for change in vivo at 25 mg/kg: 25 mpk
Procedure: In Vivo Assay of Hypolipidemic Agents Using the Hyperlipidemic Hamster
Hamsters are separated into groups of six and given a control cholesterol diet (Pudna Chow #5001 containing 0.5% cholesterol) for seven days. Diet consumption is monitored to determine dietary cholesterol exposure in the face of test compounds. The animals are dosed with the test compound once daily beginning with the initiation of diet. Dosing is by oral gavage of 0.2 mL of corn oil alone (control group) or solution (or suspension) of test compound in corn oil. All animals moribund or in poor physical condition are euthanized. After seven days, the animals are anesthetized by […] of ketamine and sacrificed by decapitation. Blood is collected into vacutainer tubes containing EDTA for plasma lipid analysis and the liver excised for tissue lipid analysis. Data is reported as percent reduction of lipid versus control.
as §1

Row | Compound | ACAT % Inhibition (ACAT) [%] | change in vivo at 50 mg/kg (cholesteryl esters) [%] | change in vivo at 100 mg/kg (cholesteryl esters) [%] | change in vivo at 25 mg/kg (cholesteryl esters) [%] | change in vivo at 10 mg/kg (cholesteryl esters; 10 mpk) [%]
1 | COc1ccc([C@H]2Cc3ccccc3[C@@H]2NC(=O)C(c2ccccc2)c2ccccc2)cc1 (relative stereo) [Example 2F] | 19 | 0 |  |  | 
2 | O=C(N[C@@H]1c2ccccc2C[C@H]1c1ccc(O)cc1)C(c1ccccc1)c1ccccc1 (relative stereo) [Example 3E] | 99 | -52 |  |  | 
3 | CCCCCCCC/C=C\CCCCCCCC(=O)N[C@H]1c2ccccc2OC[C@H]1c1ccccc1 (relative stereo) [Example 2N] | 85 |  | 0 |  | 
4 | O=C(N[C@@H]1c2ccccc2CC[C@H]1c1ccc(O)cc1)N(c1ccccc1)c1ccccc1 (relative stereo) [Example 3I] | 99 | -16 |  |  | 
5 | CCCCCCCCCC(C)(C)C(=O)N[C@H]1c2ccccc2CC[C@@H]1c1ccc(OC)cc1 (relative stereo) [Example 1F] | 36 | 0 |  |  | 
6 | O=C(N[C@@H]1c2cc(O)ccc2CC[C@@H]1c1ccccc1)C(c1ccccc1)c1ccccc1 (relative stereo) [Example 3P] | 75 | 0 |  |  | 
7 | COc1ccc2c(c1)C[C@H](c1ccccc1)[C@H]2NC(=O)C(c1ccccc1)c1ccccc1 (relative stereo) [Example 2K] | 90 |  |  | 17 | 
8 | O=C(N[C@@H]1c2ccccc2CC[C@@H]1c1ccc(O)cc1)C(c1ccccc1)c1ccccc1 (relative stereo) [Example 3F] | 91 | -16 |  |  | 
9 | CCCCCCCC/C=C\CCCCCCCC(=O)N[C@@H]1c2ccccc2CC[C@H]1c1ccc(O)cc1 (relative stereo) [Example 4, trans-N-[2-(4'-hydroxyphenyl)-1,2,3,4-tetrahydronaphth-1-yl]oleamide] | 94 | 0 |  |  | 
10 | O=C(N[C@@H]1c2cc(O)ccc2CC[C@H]1c1ccccc1)C(c1ccccc1)c1ccccc1 (relative stereo) [Example 3Q] | 94 | -78 |  |  | 
11 | COc1ccc([C@@H]2Cc3ccccc3[C@@H]2NC(=O)C(c2ccccc2)c2ccccc2)cc1 (relative stereo) [Example 2, cis-N-[2-(4'-methoxyphenyl)indanyl]-α-phenylbenzeneacetamide] | 96 | -17 |  |  | 
12 | Nc1cccc([C@H]2Cc3ccccc3[C@H]2NC(=O)C(c2ccccc2)c2ccccc2)c1 (relative stereo) [Example 5A, cis-N-[2-(3'-aminophenyl)indanyl]-α-phenylbenzeneacetamide] | 95 |  |  |  | 0
13 | O=C(N[C@@H]1c2ccccc2CC[C@H]1c1ccc(O)cc1)C(c1ccccc1)c1ccccc1 (relative stereo) [Example 3G] | 93 | -57 |  | -43 | 
14 | O=C(N[C@@H]1c2ccc(O)cc2C[C@@H]1c1ccccc1)C(c1ccccc1)c1ccccc1 (relative stereo) [Example 3K] | 54 | 0 |  |  | 
15 | O=C(N[C@@H]1c2ccccc2C[C@@H]1c1ccc(O)c(Cl)c1)C(c1ccccc1)c1ccccc1 (relative stereo) [Example 8, cis-N-[2-(3'-chloro-4'-hydroxyphenyl)indanyl]-α-phenylbenzeneacetamid] | 99 | -40 |  |  | 
16 | O=C(N[C@@H]1c2ccccc2C[C@@H]1c1cccc(O)c1)C(c1ccccc1)c1ccccc1 (relative stereo) [Example 3B] | 97 | 0 |  |  | 
17 | CCCCCCCC/C=C\CCCCCCCC(=O)N[C@H]1c2ccccc2CC[C@@H]1c1ccc(OC)cc1 (relative stereo) [Example 2H] | 81 |  | 0 |  | 
18 | CCCCCCCC/C=C\CCCCCCCC(=O)N[C@@H]1c2ccccc2CC[C@@H]1c1ccc(O)cc1 (relative stereo) [Example 4A] | 81 | 0 |  |  | 
